Assay results reported in article PMC3010440 (Journal of ethnopharmacology, 2010).
Where “and” joins values, the source holds several entries; their conditions need not be identical. Equal values may be shown once.

Tested on: Plasmodium falciparum Dd2
Assay: Antiplasmodial pLDH assay, chloroquine-resistant strain Dd2
Type: cell-based
Settings: CQ-resistant Dd2 strain; pLDH; triplicate; ten point dose response

Molecule | Plasmodium falciparum Dd2: IC50 [µg/mL]
O[C@@H]1c2ccccc2-c2c3c(cc4c2[C@@H]1NCC4)OCO3 [Compound 2, norushinsunine] | 30.9 ± 2.3
asimilobine [Compound 1] | 5.8 ± 1.3
C=C1C(=O)O[C@@H]2C3O[C@]3(C)CC/C=C(\C)C[C@@H](OC(C)=O)[C@@H]12 (stereo partly drawn) [Compound 8, lipiferolide] | 2.3 ± 0.1
C=C1C(=O)O[C@H]2[C@H]1[C@H](OC(C)=O)CC(=C)[C@H](OO)CC[C@@]1(C)O[C@H]21 [Compound 7, peroxyferolide] | 4.3 ± 1.2
COc1cc2c(cc1OC)-c1c(OC)c(OC)cc3c1[C@H](C2)NCC3 [Compound 3, norglaucine] | 32.2 ± 1.3

Same assay, conditions: Plasmodium falciparum, DD2, read-out: Plasmodium falciparum Dd2: IC50

Molecule | IC50
COc1cc2c(cc1OC)-c1c(OC)c(OC)cc3ccnc(c13)C2=O [Compound 6, oxoglaucine] | 20.8 µg/mL and 59.2 µM
c1ccc2c(c1)C[C@H]1NCCc3cc4c(c-2c31)OCO4 [Compound 5, anonaine] | 5.2 µg/mL and 19.6 µM
O=C1c2ccccc2-c2c3c(cc4ccnc1c24)OCO3 [Compound 4, liriodenine] | 7.9 µg/mL and 28.7 µM
CCN(CC)CCCC(C)Nc1ccnc2cc(Cl)ccc12 (stereo not drawn) [Chloroquine, Chloroquine diphosphate, reference compound] | 0.07 µg/mL and 230 nM

Same assay, conditions: RI = IC50 Dd2 / IC50 D10

Molecule | Resistance index (RI)
COc1cc2c(cc1OC)-c1c(OC)c(OC)cc3ccnc(c13)C2=O [Compound 6, oxoglaucine] | 2.3
O[C@@H]1c2ccccc2-c2c3c(cc4c2[C@@H]1NCC4)OCO3 [Compound 2, norushinsunine] | 1.0
asimilobine [Compound 1] | 4.8
C=C1C(=O)O[C@@H]2C3O[C@]3(C)CC/C=C(\C)C[C@@H](OC(C)=O)[C@@H]12 (stereo partly drawn) [Compound 8, lipiferolide] | 1.3
C=C1C(=O)O[C@H]2[C@H]1[C@H](OC(C)=O)CC(=C)[C@H](OO)CC[C@@]1(C)O[C@H]21 [Compound 7, peroxyferolide] | 0.7
c1ccc2c(c1)C[C@H]1NCCc3cc4c(c-2c31)OCO4 [Compound 5, anonaine] | 4.2
O=C1c2ccccc2-c2c3c(cc4ccnc1c24)OCO3 [Compound 4, liriodenine] | 1.9
COc1cc2c(cc1OC)-c1c(OC)c(OC)cc3c1[C@H](C2)NCC3 [Compound 3, norglaucine] | 1.5

Same assay, conditions: read-out: Plasmodium falciparum Dd2: IC50; CQ-resistant Dd2 strain; pLDH; triplicate; ten point dose response

Molecule | IC50 [µM]
O[C@@H]1c2ccccc2-c2c3c(cc4c2[C@@H]1NCC4)OCO3 [Compound 2, norushinsunine] | 110 ± 8.1
asimilobine [Compound 1] | 21.7 ± 6.3
C=C1C(=O)O[C@@H]2C3O[C@]3(C)CC/C=C(\C)C[C@@H](OC(C)=O)[C@@H]12 (stereo partly drawn) [Compound 8, lipiferolide] | 7.5 ± 0.3
C=C1C(=O)O[C@H]2[C@H]1[C@H](OC(C)=O)CC(=C)[C@H](OO)CC[C@@]1(C)O[C@H]21 [Compound 7, peroxyferolide] | 12.7 ± 3.5
COc1cc2c(cc1OC)-c1c(OC)c(OC)cc3c1[C@H](C2)NCC3 [Compound 3, norglaucine] | 94.3 ± 3.8

Tested on: Plasmodium falciparum D10
Assay: Antiplasmodial pLDH assay, chloroquine-sensitive strain D10
Type: cell-based
Settings: CQ-sensitive D10 strain; pLDH; triplicate; ten point dose response

Molecule | Plasmodium falciparum D10 (IC50) [µg/mL]
O[C@@H]1c2ccccc2-c2c3c(cc4c2[C@@H]1NCC4)OCO3 [Compound 2, norushinsunine] | 29.6 ± 3.9
asimilobine [Compound 1] | 1.2 ± 0.1
C=C1C(=O)O[C@@H]2C3O[C@]3(C)CC/C=C(\C)C[C@@H](OC(C)=O)[C@@H]12 (stereo partly drawn) [Compound 8, lipiferolide] | 1.8 ± 0.7
C=C1C(=O)O[C@H]2[C@H]1[C@H](OC(C)=O)CC(=C)[C@H](OO)CC[C@@]1(C)O[C@H]21 [Compound 7, peroxyferolide] | 6.2 ± 0.1
COc1cc2c(cc1OC)-c1c(OC)c(OC)cc3c1[C@H](C2)NCC3 [Compound 3, norglaucine] | 22.0 ± 2.8

Same assay, conditions: Plasmodium falciparum, D10, read-out: Plasmodium falciparum D10 (IC50)

Molecule | IC50
COc1cc2c(cc1OC)-c1c(OC)c(OC)cc3ccnc(c13)C2=O [Compound 6, oxoglaucine] | 9.1 µg/mL and 25.9 µM
c1ccc2c(c1)C[C@H]1NCCc3cc4c(c-2c31)OCO4 [Compound 5, anonaine] | 1.2 µg/mL and 4.5 µM
O=C1c2ccccc2-c2c3c(cc4ccnc1c24)OCO3 [Compound 4, liriodenine] | 4.1 µg/mL and 14.9 µM
CCN(CC)CCCC(C)Nc1ccnc2cc(Cl)ccc12 (stereo not drawn) [Chloroquine, Chloroquine diphosphate, reference compound] | 0.01 µg/mL and 30 nM

Same assay, conditions: read-out: Plasmodium falciparum D10 (IC50); CQ-sensitive D10 strain; pLDH; triplicate; ten point dose response

Molecule | IC50 [µM]
O[C@@H]1c2ccccc2-c2c3c(cc4c2[C@@H]1NCC4)OCO3 [Compound 2, norushinsunine] | 105 ± 13.9
asimilobine [Compound 1] | 4.5 ± 0.3
C=C1C(=O)O[C@@H]2C3O[C@]3(C)CC/C=C(\C)C[C@@H](OC(C)=O)[C@@H]12 (stereo partly drawn) [Compound 8, lipiferolide] | 5.9 ± 2.3
C=C1C(=O)O[C@H]2[C@H]1[C@H](OC(C)=O)CC(=C)[C@H](OO)CC[C@@]1(C)O[C@H]21 [Compound 7, peroxyferolide] | 18.3 ± 0.3
COc1cc2c(cc1OC)-c1c(OC)c(OC)cc3c1[C@H](C2)NCC3 [Compound 3, norglaucine] | 64.4 ± 8.2

Tested on: Chinese Hamster Ovarian (CHO) cell line
Assay: Cytotoxicity MTT assay
Type: cell-based
Settings: not given

Molecule | Cytotoxicity (in words)
O[C@@H]1c2ccccc2-c2c3c(cc4c2[C@@H]1NCC4)OCO3 [Compound 2, norushinsunine] | no observable cytotoxicity

Same assay, conditions: CHO cells; MTT

Molecule | Cytotoxicity (in words)
COc1cc2c(cc1OC)-c1c(OC)c(OC)cc3ccnc(c13)C2=O [Compound 6, oxoglaucine] | no observable cytotoxicity
COc1cc2c(cc1OC)-c1c(OC)c(OC)cc3c1[C@H](C2)NCC3 [Compound 3, norglaucine] | no observable cytotoxicity

Same assay, conditions: CHO cells; MTT; triplicate

Molecule | CHO Cell line (IC50) [µg/mL]
O[C@@H]1c2ccccc2-c2c3c(cc4c2[C@@H]1NCC4)OCO3 [Compound 2, norushinsunine] | > 100
asimilobine [Compound 1] | > 100
C=C1C(=O)O[C@@H]2C3O[C@]3(C)CC/C=C(\C)C[C@@H](OC(C)=O)[C@@H]12 (stereo partly drawn) [Compound 8, lipiferolide] | 1.4 ± 0.2
C=C1C(=O)O[C@H]2[C@H]1[C@H](OC(C)=O)CC(=C)[C@H](OO)CC[C@@]1(C)O[C@H]21 [Compound 7, peroxyferolide] | 3.2 ± 0.6
COc1cc2c(cc1OC)-c1c(OC)c(OC)cc3c1[C@H](C2)NCC3 [Compound 3, norglaucine] | > 100

Same assay, conditions: SI = IC50 CHO / IC50 D10

Molecule | Selectivity index (SI)
COc1cc2c(cc1OC)-c1c(OC)c(OC)cc3ccnc(c13)C2=O [Compound 6, oxoglaucine] | > 11
O[C@@H]1c2ccccc2-c2c3c(cc4c2[C@@H]1NCC4)OCO3 [Compound 2, norushinsunine] | > 3
asimilobine [Compound 1] | > 83
C=C1C(=O)O[C@@H]2C3O[C@]3(C)CC/C=C(\C)C[C@@H](OC(C)=O)[C@@H]12 (stereo partly drawn) [Compound 8, lipiferolide] | 0.8
C=C1C(=O)O[C@H]2[C@H]1[C@H](OC(C)=O)CC(=C)[C@H](OO)CC[C@@]1(C)O[C@H]21 [Compound 7, peroxyferolide] | 0.5
c1ccc2c(c1)C[C@H]1NCCc3cc4c(c-2c31)OCO4 [Compound 5, anonaine] | > 83
O=C1c2ccccc2-c2c3c(cc4ccnc1c24)OCO3 [Compound 4, liriodenine] | 2.0
COc1cc2c(cc1OC)-c1c(OC)c(OC)cc3c1[C@H](C2)NCC3 [Compound 3, norglaucine] | > 5

Same assay, conditions: read-out: CHO Cell line (IC50); CHO cells; MTT; triplicate

Molecule | IC50 [µM]
O[C@@H]1c2ccccc2-c2c3c(cc4c2[C@@H]1NCC4)OCO3 [Compound 2, norushinsunine] | > 300
asimilobine [Compound 1] | > 300
C=C1C(=O)O[C@@H]2C3O[C@]3(C)CC/C=C(\C)C[C@@H](OC(C)=O)[C@@H]12 (stereo partly drawn) [Compound 8, lipiferolide] | 4.6 ± 0.7
C=C1C(=O)O[C@H]2[C@H]1[C@H](OC(C)=O)CC(=C)[C@H](OO)CC[C@@]1(C)O[C@H]21 [Compound 7, peroxyferolide] | 9.5 ± 1.8
COc1cc2c(cc1OC)-c1c(OC)c(OC)cc3c1[C@H](C2)NCC3 [Compound 3, norglaucine] | > 300
